From ChEMBL document CHEMBL1671713, “Synergy of caspofungin with human polymorphonuclear granulocytes for killing Candida albicans” (2010)

Columns and labels:
Assay type in all cases: functional
[1] = system: Candida albicans; assay: Potentiation of human polymorphonuclear granulocytes-induced intracellular killing of Candida albicans at 3.2 ug/ml after 60 mins (Rvb =47%)
[2] = system: Candida albicans; assay: Potentiation of compound pretreated human polymorphonuclear granulocytes-induced intracellular killing of Candida albicans at 8 ug/ml after 90 mins (Rvb =48%)
[3] = system: Candida albicans; assay: Potentiation of compound pretreated human polymorphonuclear granulocytes-induced intracellular killing of Candida albicans at 3.2 ug/ml after 60 mins (Rvb =47%)
[4] = system: Candida albicans; assay: Potentiation of compound pretreated human polymorphonuclear granulocytes-induced intracellular killing of Candida albicans at 2 ug/ml after 60 mins (Rvb =47%)
[5] = system: Candida albicans; assay: Potentiation of human polymorphonuclear granulocytes-induced intracellular killing of compound pretreated Candida albicans for 1hr at 8 ug/ml after 90 mins (Rvb =48%)
[6] = system: Candida albicans; assay: Potentiation of human polymorphonuclear granulocytes-induced intracellular killing of compound pretreated Candida albicans for 1hr at 2 ug/ml after 30 mins (Rvb =46%)
[7] = system: Candida albicans; assay: Potentiation of human polymorphonuclear granulocytes-induced intracellular killing of Candida albicans at 3.2 ug/ml after 30 mins (Rvb =46%)
[8] = system: Candida albicans; assay: Potentiation of human polymorphonuclear granulocytes-induced intracellular killing of compound pretreated Candida albicans for 1hr at 3.2 ug/ml after 30 mins (Rvb =46%)
[9] = system: Candida albicans; assay: Potentiation of human polymorphonuclear granulocytes-induced intracellular killing of compound pretreated Candida albicans for 1hr at 8 ug/ml after 60 mins (Rvb =47%)
[10] = system: Candida albicans; assay: Potentiation of human polymorphonuclear granulocytes-induced intracellular killing of Candida albicans at 2 ug/ml after 90 mins (Rvb =48%)
[11] = system: Candida albicans; assay: Potentiation of human polymorphonuclear granulocytes-induced intracellular killing of compound pretreated Candida albicans for 1hr at 3.2 ug/ml after 90 mins (Rvb =48%)
[12] = system: Candida albicans; assay: Potentiation of compound pretreated human polymorphonuclear granulocytes-induced intracellular killing of Candida albicans at 2 ug/ml after 90 mins (Rvb =48%)
[13] = system: Candida albicans; assay: Potentiation of human polymorphonuclear granulocytes-induced intracellular killing of compound pretreated Candida albicans for 1hr at 2 ug/ml after 60 mins (Rvb =47%)
[14] = system: Candida albicans; assay: Potentiation of human polymorphonuclear granulocytes-induced intracellular killing of compound pretreated Candida albicans for 1hr at 3.2 ug/ml after 60 mins (Rvb =47%)
[15] = system: Candida albicans; assay: Potentiation of human polymorphonuclear granulocytes-induced intracellular killing of compound pretreated Candida albicans for 1hr at 2 ug/ml after 90 mins (Rvb =48%)
[16] = system: Candida albicans; assay: Potentiation of human polymorphonuclear granulocytes-induced intracellular killing of Candida albicans at 8 ug/ml after 90 mins (Rvb =48%)
[17] = system: Candida albicans; assay: Potentiation of compound pretreated human polymorphonuclear granulocytes-induced intracellular killing of Candida albicans at 3.2 ug/ml after 90 mins (Rvb =48%)
[18] = system: Candida albicans; assay: Potentiation of human polymorphonuclear granulocytes-induced intracellular killing of Candida albicans at 2 ug/ml after 60 mins (Rvb =47%)
[19] = system: Candida albicans; assay: Potentiation of compound pretreated human polymorphonuclear granulocytes-induced intracellular killing of Candida albicans at 8 ug/ml after 60 mins (Rvb =47%)
[20] = system: Candida albicans; assay: Potentiation of human polymorphonuclear granulocytes-induced intracellular killing of Candida albicans at 8 ug/ml after 30 mins (Rvb =46%)
[21] = system: Candida albicans; assay: Potentiation of compound pretreated human polymorphonuclear granulocytes-induced intracellular killing of Candida albicans at 3.2 ug/ml after 30 mins (Rvb =46%)
[22] = system: Candida albicans; assay: Potentiation of human polymorphonuclear granulocytes-induced intracellular killing of Candida albicans at 2 ug/ml after 30 mins (Rvb =46%)
[23] = system: Candida albicans; assay: Potentiation of human polymorphonuclear granulocytes-induced intracellular killing of Candida albicans at 8 ug/ml after 60 mins (Rvb =47%)
[24] = system: Candida albicans; assay: Potentiation of compound pretreated human polymorphonuclear granulocytes-induced intracellular killing of Candida albicans at 8 ug/ml after 30 mins (Rvb =46%)
[25] = system: Candida albicans; assay: Potentiation of human polymorphonuclear granulocytes-induced intracellular killing of Candida albicans at 3.2 ug/ml after 90 mins (Rvb =48%)
[26] = system: Candida albicans; assay: Potentiation of human polymorphonuclear granulocytes-induced intracellular killing of compound pretreated Candida albicans for 1hr at 8 ug/ml after 30 mins (Rvb =46%)
[27] = system: Candida albicans; assay: Potentiation of compound pretreated human polymorphonuclear granulocytes-induced intracellular killing of Candida albicans at 2 ug/ml after 30 mins (Rvb =46%)

`CC[C@H](C)C[C@H](C)CCCCCCCCC(=O)N[C@H]1C[C@@H](O)[C@@H](NCCN)NC(=O)[C@@H]2[C@@H](O)CCN2C(=O)[C@H]([C@H](O)CCN)NC(=O)[C@H]([C@H](O)[C@@H](O)c2ccc(O)cc2)NC(=O)[C@@H]2C[C@@H](O)CN2C(=O)[C@H]([C@@H](C)O)NC1=O` [CASPOFUNGIN] showed an Activity [1] of 75%, an Activity [2] of 94% and an Activity [3] of 84%. For the same molecule, the Activity [4] was 76%, the Activity [5] was 72% and the Activity [6] was 69%. It also gave an Activity [7] of 72%, an Activity [8] of 63% and an Activity [9] of 66%. For the same molecule, the Activity [10] was 75%, the Activity [11] was 78% and the Activity [12] was 82%. It also gave an Activity [13] of 69%, an Activity [14] of 74% and an Activity [15] of 82%. The Activity [16] was 83%, the Activity [17] was 91% and the Activity [18] was 72%. The Activity [19] was 82%, the Activity [20] was 74% and the Activity [21] was 69%. The Activity [22] was 71%, the Activity [23] was 83% and the Activity [24] was 79%. It also gave an Activity [25] of 86%, an Activity [26] of 63% and an Activity [27] of 72%.
